Data on eleven molecules can be found in patent US5434266A, “Monosaccharide analog-based glycosidase inhibitors” (priority 1993, dated 1995).

Like-named read-outs stand apart in the source and are kept apart here.

Assay [1] concerns the target T1, jackbean α-mannosidase (Canavalia ensiformis, UniProt C0HJB3).
T1 construct: host or cells: jack bean
T1 sequence (C0HJB3 1-981): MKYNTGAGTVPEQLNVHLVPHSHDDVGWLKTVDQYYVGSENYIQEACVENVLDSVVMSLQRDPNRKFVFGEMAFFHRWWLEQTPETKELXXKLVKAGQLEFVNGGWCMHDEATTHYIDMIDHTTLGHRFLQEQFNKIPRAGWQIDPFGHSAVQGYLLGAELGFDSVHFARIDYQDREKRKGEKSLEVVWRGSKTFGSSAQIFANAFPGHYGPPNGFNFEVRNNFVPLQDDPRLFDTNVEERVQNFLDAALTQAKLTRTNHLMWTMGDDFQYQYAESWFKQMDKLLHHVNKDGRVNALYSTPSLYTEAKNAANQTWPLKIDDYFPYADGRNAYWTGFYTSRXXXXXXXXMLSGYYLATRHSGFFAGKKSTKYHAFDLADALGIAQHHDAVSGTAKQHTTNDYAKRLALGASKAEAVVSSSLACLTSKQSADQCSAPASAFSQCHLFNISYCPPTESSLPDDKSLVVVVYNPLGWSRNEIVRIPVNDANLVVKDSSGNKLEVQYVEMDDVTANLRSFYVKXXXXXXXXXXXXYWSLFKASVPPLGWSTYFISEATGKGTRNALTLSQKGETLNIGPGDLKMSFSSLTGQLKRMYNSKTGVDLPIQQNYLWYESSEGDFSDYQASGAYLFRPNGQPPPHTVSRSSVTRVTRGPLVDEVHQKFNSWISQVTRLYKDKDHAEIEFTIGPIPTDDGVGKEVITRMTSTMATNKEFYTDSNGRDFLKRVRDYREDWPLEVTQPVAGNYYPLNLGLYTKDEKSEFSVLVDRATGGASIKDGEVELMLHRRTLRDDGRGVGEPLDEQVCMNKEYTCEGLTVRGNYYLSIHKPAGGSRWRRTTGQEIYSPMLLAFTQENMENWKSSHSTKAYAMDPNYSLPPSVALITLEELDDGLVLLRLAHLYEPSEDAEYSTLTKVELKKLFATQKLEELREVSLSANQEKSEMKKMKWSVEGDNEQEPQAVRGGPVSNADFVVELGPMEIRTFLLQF
The assay can be described thus: Glycosidase inhibition / KI determination, jackbean α-mannosidase. The assay is classed as biochemical. How it is done:
(§1) pH for Enzyme Assays--Yeast e-glucosidase and green coffee bean α-galactosidase were assayed at pH 6.6. Almond β-glucosidase and jackbean α-mannosidase were assayed at pH 5.0. Bovine liver β-galactosidase was assayed at pH 7.0.
(§2) Working Enzyme Solutions--Typical enzyme concentrations in the assay buffer for inhibitor screening were as follows: yeast α-glucosidase, 10 μL of enzyme suspension in 2.00 mL pH 6.6 phosphate-citrate buffer; almond β-glucosidase, 25 μL of enzyme solution (0.4 mg solid enzyme in 70 μL pH 5.0 NaCl/NaOAc buffer) in 5.00 mL pH 5.0 NaCl/NaOAc buffer; jackbean α-mannosidase, 5-8 μL of enzyme suspension in 2.00 mL NaCl/NaOAc buffer; green coffee bean α galactosidase, 15 μL of enzyme suspension in 1.2 mL NaCl/NaOAc buffer; bovine liver β-galactosidase, 1.7 mg solid enzyme in 850 μL, NaCl/NaOAc buffer.
(§3) An acceptable concentration of enzyme, upon hydrolysis of the corresponding glycoside, should give an absorbance reading between 0.4 and 2.0 at 400 nm. A control assay was first performed to determine whether the enzyme concentration was acceptable. The assays involved addition of working enzyme solution (0.09 mL) and deionized water (0.18 mL) to buffer at the appropriate pH (0.09 mL, phosphate-citrate). The resulting solution was incubated at 37° C. for 5 minutes. Aliquots (0.1 mL) of this preincubation mixture was then added to three separate test tubes. Substrate (the corresponding p-nitrophenyl-D-glycoside, 0.1 mL, 10 mM in appropriate buffer), which had also been incubated at 37° C., was then added to each tube at thirty-second intervals. The hydrolyses were allowed to continue for 0.25 hours and then quenched by addition of glycine buffer (2.5 mL). The absorbance of the resulting solution was measure at 400 nm. Once this control run of the system gave an absorbance within 0.4-2.0, the potential inhibitors were assayed against this working enzyme solution at final inhibitor and substrate concentrations of 1 and 5 mM, respectively. In the inhibitor assays, deionized water was replaced by the inhibitor ([…] solution in deionized water). All inhibitors were tested in triplicate, with a control (by substituting the inhibitors with deionized water) and a standard.
(§4) Five substrate solutions (usually […]) and five inhibitor solutions (usually 0-200 μM) were prepared. To a 3-mL test tube were added buffer at the appropriate pH (0.28 mL, phosphate-citrate), working enzyme solution (0.28 mL) and inhibitor solution (0.56 mL). The solution was incubated at 37° C. for 5 minutes. Aliquots (0.1 mL) of this solution were then pipetted into ten separate test tubes. Substrate solution (0.1 mL) was then added to each tube at thirty-second intervals. Duplicate reactions were terminated by addition of glycine buffer (2.5 mL) at the end of 3, 6, 8, 10, and 12 minutes. The amound of released p-nitrophenolate was measured spectrophotometrically at 400 nm. The process was repeated for all combinations of inhibitor and substrate concentrations.
(§5) The velocities (V) of substrate hydrolysis at every combination of inhibitor [I] and substrate [S] concentrations were determined by plotting the absorbance values with respect to time and t]hen calculating the slopes of the lines. Double reciprocal plots of 1/V versus 1/[S] at different [I] were then generated. The slopes of each of these lines were then plotted against [I] and the data were fitted to a straight line. The [I]-intercept gave the enzyme-inhibitor dissociation constant. KI values were also calculated from Hanes-Woolf plots of [S]/V vs. [S] by replotttng the [S]/V intercepts versus [I] and ascertaining the [I] intercept. KI values in the Table represent an average of the two calculations.

Assay [2] concerns the target almond β-glucosidase. The assay can be described thus: Glycosidase inhibition / KI determination, almond β-glucosidase. The assay is classed as biochemical. The settings on record: pH 5.0, read-out: KI β-Glu pH 5.0. How it is done: as §1, §2, §3, §4, §5
The target of assay [3] is green coffee bean α-galactosidase (Coffea arabica, UniProt Q42656). Kind of assay: Glycosidase inhibition, green coffee bean α-galactosidase. The class given is biochemical. The settings on record: coffeebean galactosidase. How it is done: as §1, §2
(§6) An acceptable concentration of enzyme, upon hydrolysis of the corresponding glycoside, should give an absorbance reading between 0.4 and 2.0 at 400 nm. A control assay was first performed to determine whether the enzyme concentration was acceptable. The assays involved addition of working enzyme solution (0.09 mL) and deionized water (0.18 mL) to buffer at the appropriate pH (0.09 mL, phosphate-citrate). […] The absorbance of the resulting solution was measure at 400 nm. Once this control run of the system gave an absorbance within 0.4-2.0, the potential inhibitors were assayed against this working enzyme solution at final inhibitor and substrate concentrations of 1 and 5 mM, respectively. […]
(§7) Five substrate solutions (usually […]) and five inhibitor solutions (usually 0-200 μM) were prepared. […] The amound of released p-nitrophenolate was measured spectrophotometrically at 400 nm. […]
(§8) The velocities (V) of substrate hydrolysis at every combination of inhibitor [I] and substrate [S] concentrations were determined by plotting the absorbance values with respect to time and t]hen calculating the slopes of the lines. […] KI values were also calculated from Hanes-Woolf plots of [S]/V vs. [S] by replotttng the [S]/V intercepts versus [I] and ascertaining the [I] intercept. […]

Assay [4] has as its target T2, yeast α-glucosidase (Saccharomyces cerevisiae, UniProt P53341).
T2 construct: host or cells: yeast
Kind of assay: Glycosidase inhibition / KI determination, yeast α-glucosidase. The class given is biochemical. How it is done: as §1, §2, §6, §7, §8

Assay [5] addresses T3, bovine liver β-galactosidase (Bos taurus, UniProt F1MNT6).
T3 construct: from tissue; host or cells: bovine liver
T3 sequence (F1MNT6 1-469): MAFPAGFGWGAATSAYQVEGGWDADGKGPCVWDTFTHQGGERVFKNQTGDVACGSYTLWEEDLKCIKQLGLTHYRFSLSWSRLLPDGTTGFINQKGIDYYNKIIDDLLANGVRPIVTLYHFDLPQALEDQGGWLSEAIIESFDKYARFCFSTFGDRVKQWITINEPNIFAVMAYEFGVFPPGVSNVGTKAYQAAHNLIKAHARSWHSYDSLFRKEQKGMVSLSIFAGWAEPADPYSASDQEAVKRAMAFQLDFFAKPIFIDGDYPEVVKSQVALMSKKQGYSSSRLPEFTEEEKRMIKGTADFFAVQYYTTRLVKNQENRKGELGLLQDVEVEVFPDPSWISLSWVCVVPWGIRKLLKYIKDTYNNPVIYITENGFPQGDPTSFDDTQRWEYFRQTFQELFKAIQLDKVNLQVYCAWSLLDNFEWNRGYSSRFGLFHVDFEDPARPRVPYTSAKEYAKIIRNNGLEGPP
The assay can be described thus: Glycosidase inhibition / KI determination, bovine liver β-galactosidase. The class given is biochemical. How it is done:
as §1, §2, §3, §4
The velocities (V) of substrate hydrolysis at every combination of inhibitor [I] and substrate [S] concentrations were determined by plotting the absorbance values with respect to time and t]hen calculating the slopes of the lines. Double reciprocal plots of 1/V versus 1/[S] at different [I] were then generated. […] KI values were also calculated from Hanes-Woolf plots of [S]/V vs. [S] by replotttng the [S]/V intercepts versus [I] and ascertaining the [I] intercept. […]

Assay [6] addresses T4, A. niger amyloglucosidase (Aspergillus niger, UniProt P69328).
T4 construct: host or cells: Aspergillus niger
Kind of assay: Glycosidase inhibition, A. niger amyloglucosidase. The assay is classed as biochemical. The conditions noted are these: pH 5.0, read-out: amylo-Glu pH 5.0 (class). How it is done: as §3, §7, §8

Assay [7] concerns glucosidases. The settings on record: cited from earlier work.
For assay [8], the system named is HIV. The settings on record: cited from earlier work.
Assay [9] deals with galactosidases. The settings on record: cited from earlier work.
Assay [10] concerns mannosidases. The settings on record: cited from earlier work.
Where [11] appears, read: pH 5.0, read-out: KI α-man pH 5.0.
The mark [12] stands for this setting: pH 7.0, read-out: β-gal pH 7.0 (class).
[13] abbreviates: pH 7.0, read-out: KI β-gal pH 7.0.

T4 sequence (P69328 25-640): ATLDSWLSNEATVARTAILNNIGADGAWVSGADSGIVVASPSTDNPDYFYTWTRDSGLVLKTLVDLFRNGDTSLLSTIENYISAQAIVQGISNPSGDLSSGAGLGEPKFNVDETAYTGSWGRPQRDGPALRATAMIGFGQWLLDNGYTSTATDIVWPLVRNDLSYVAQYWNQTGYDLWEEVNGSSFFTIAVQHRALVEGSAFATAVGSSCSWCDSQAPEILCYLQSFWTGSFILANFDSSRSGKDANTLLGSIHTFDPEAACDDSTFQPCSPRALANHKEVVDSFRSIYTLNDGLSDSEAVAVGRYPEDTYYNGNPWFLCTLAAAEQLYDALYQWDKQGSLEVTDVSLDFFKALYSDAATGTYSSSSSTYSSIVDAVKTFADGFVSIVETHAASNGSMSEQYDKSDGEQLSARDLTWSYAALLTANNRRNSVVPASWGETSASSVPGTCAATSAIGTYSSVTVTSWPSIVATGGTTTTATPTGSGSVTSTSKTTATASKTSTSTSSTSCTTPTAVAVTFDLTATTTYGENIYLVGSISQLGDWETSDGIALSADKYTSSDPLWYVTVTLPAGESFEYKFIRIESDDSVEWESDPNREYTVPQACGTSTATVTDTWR
Chain of green coffee bean α-galactosidase (Q42656 16-378): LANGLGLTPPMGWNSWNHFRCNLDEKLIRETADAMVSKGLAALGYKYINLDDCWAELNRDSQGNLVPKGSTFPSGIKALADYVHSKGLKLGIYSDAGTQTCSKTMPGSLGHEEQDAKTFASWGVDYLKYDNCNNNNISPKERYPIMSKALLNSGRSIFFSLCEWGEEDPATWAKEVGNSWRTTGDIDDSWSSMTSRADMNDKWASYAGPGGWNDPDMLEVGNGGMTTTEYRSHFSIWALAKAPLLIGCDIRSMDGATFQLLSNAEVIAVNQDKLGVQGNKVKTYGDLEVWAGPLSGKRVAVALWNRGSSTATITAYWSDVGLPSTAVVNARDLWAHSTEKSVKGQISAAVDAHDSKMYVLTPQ
T2 sequence (P53341 whole entry): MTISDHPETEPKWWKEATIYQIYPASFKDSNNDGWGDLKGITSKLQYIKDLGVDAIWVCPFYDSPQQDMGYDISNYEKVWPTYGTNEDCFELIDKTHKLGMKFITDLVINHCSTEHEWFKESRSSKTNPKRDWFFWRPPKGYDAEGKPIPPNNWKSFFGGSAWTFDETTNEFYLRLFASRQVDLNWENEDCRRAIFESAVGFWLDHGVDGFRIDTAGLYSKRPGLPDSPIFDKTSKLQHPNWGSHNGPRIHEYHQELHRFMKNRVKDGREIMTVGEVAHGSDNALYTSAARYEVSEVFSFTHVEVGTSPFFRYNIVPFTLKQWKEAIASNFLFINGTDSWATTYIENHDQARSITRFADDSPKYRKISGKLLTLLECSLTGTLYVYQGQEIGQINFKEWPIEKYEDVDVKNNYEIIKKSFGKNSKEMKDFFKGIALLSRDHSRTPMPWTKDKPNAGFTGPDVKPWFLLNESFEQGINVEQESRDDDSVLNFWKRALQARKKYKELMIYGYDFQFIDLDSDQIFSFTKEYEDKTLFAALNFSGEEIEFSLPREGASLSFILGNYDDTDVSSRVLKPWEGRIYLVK

With `OC[C@H]1N=C(NO)[C@H](O)[C@@H](O)[C@@H]1O` [Compound 13, D-Glucoamidoxime], the results for the Ki in assay [1] (setting [11]) and in [2] were 10 ± 2 µM and 13.8 ± 3 µM, respectively.
In the case of `NC1=N[C@H](CO)[C@@H](O)[C@H](O)[C@H]1O` [Compound 1, D-Glucoamidine], the “α-gal pH 6.6 (class)” value in assay [3] is on record as “none”. In addition, in [4], the “α-Glu pH 6.6 (class)” value is “none”. In addition, the Ki in [5] (setting [12]) is less than 100 µM; in assay [1] (setting [11]), 9 µM; in assay [6], more than 1000 µM; in [2], 8 µM.
Take `OC[C@H]1NC[C@H](O)[C@@H](O)[C@@H]1O` [Compound B, 1-deoxynojirimycin]: the glucosidase inhibition result in [7] is on record as “potent glucosidase inhibitors”. For the same molecule, the “effect on infectivity of HIV” value in assay [8] is recorded as “interfere with the infectivity of HIV”.
`OC[C@H]1NC(O)[C@H](O)[C@@H](O)[C@@H]1O` (stereo partly drawn) [Nojirimycin, nojirimycin, reference compound]: the “α-gal pH 6.6 (class)” value in assay [3] is listed as “mod-none”. Further, the Ki in [4] (pH 6.6, read-out: KI α-Glu pH 6.6) is 13 µM; in [5] (setting [12]), more than 1000 µM; in assay [6], more than 1000 µM; in assay [2], 380 µM. Moreover, the glucosidase inhibition result in assay [7] is recorded as “potent glucosidase inhibitors”. The “α-man pH 5.0 (class)” value in assay [1] is “moderate”.
As to `OC[C@H]1NC(O)[C@H](O)[C@@H](O)[C@H]1O` (stereo partly drawn) [D, galactostatin], the galactosidase inhibition result in [9] is “inhibits galactosidases”.
For the molecule `NNC1=N[C@H](CO)[C@@H](O)[C@H](O)[C@H]1O` [Compound 8, D-Glucoamidrazone], the Ki was 19 µM in assay [5] (setting [13]), 6.5 ± 3 µM in [1] (setting [11]) and 8.4 ± 0.9 µM in assay [2].
Take `OC[C@H]1N=C(NO)[C@@H](O)[C@@H](O)[C@@H]1O` [Compound 15, D-Mannoamidoxime]: the Ki in assay [1] (setting [11]) stood at 2 ± 0.1 µM.
`NNC1=N[C@H](CO)[C@@H](O)[C@H](O)[C@@H]1O` [Compound 9, D-Mannoamidrazone]: the Ki in [5] (setting [13]) was 57 ± 2.5 µM; in assay [1] (setting [11]), 0.166 ± 0.013 µM; in [2], 205 ± 25 µM.
As for `CN(C)C1=N[C@H](CO)[C@@H](O)[C@H](O)[C@H]1O` [Compound 2, D-Gluco-N,N-Dimethylamidine], the “α-gal pH 6.6 (class)” value in assay [3] is reported as “none”. In addition, the “α-Glu pH 6.6 (class)” value in assay [4] is “none”. Moreover, the Ki in [5] (setting [12]) is less than 100 µM; in assay [1] (pH 5.0, read-out: α-man pH 5.0 (class)) it was less than 100 µM; in assay [6] it was more than 1000 µM; in assay [2], 83 µM.
For the molecule `NC1O[C@H](CO)[C@@H](O)[C@H](O)[C@H]1O` (stereo partly drawn) [glucosylamine], the “inhibition of α- and β-glucosidases” value in assay [7] (α- and β-glucosidases) is “inhibits both α- and β-glucosidases”.
Turning to `OC[C@H]1NC[C@@H](O)[C@@H](O)[C@@H]1O` [C, 1-deoxymannojirimycin], the mannosidase inhibition entry in [10] is on record as “inhibits mannosidases”.
